Test results taken from ChEMBL document CHEMBL4396956 (Bioorg Med Chem, 2019).
Activity calls are given as the source filed them. The calls are words filed in the database; no cut-off is given here.

Columns and labels:
Rattus norvegicus [1] = assay: Antidiabetic activity in Sprague-Dawley rat assessed as decrease in glucose level at 25 nmol/kg, ip pretreated for 30 mins followed by glucose challenge and measured up to 180 mins by OGTT relative to control; assay type: functional, organism-based
Rattus norvegicus [2] = assay: Antidiabetic activity in Sprague-Dawley rat assessed as increase in insulin level at 25 nmol/kg, ip pretreated for 30 mins followed by glucose challenge and measured after 15 to 60 mins by ELISA method; assay type: functional
Mus musculus = assay: Antidiabetic activity in STZ-induced diabetic Kunming mouse assessed as hypoglycemic time duration for glycemia under 8.35 mmol/L at 25 nmol/kg, ip pretreated with STZ for 5 consecutive days and measured up to 48 hrs; assay type: functional
[3] = target: Glucagon-like peptide 1 receptor (Homo sapiens, UniProt P43220); assay: Agonist activity at human GLP1 receptor expressed in HEK293 cells assessed as induction of cAMP levels after 20 mins by time-resolved fluorescence analysis; assay type: functional, cell-based
Chain of Glucagon-like peptide 1 receptor (P43220 whole entry): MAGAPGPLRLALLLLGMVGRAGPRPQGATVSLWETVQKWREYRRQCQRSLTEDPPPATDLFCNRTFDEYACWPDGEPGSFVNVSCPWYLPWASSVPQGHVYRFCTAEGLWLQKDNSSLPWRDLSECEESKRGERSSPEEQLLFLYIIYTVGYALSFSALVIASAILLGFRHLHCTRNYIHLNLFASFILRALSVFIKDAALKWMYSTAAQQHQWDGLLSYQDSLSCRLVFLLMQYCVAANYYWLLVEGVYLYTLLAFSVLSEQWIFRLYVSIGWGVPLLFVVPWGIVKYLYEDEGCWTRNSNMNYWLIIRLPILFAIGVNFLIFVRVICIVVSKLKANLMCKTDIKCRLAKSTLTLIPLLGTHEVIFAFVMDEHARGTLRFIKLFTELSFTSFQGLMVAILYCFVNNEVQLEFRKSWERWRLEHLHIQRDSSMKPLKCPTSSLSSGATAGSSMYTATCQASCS

Row | EC50 [3] [nM] | Compound | Activity (Rattus norvegicus [1]) | Activity (Rattus norvegicus [2]) [pmol/L] | Time (Mus musculus) [h]
1 |  | CCCCCCCCCCCCCCCC(=O)N[C@@H](CCC(=O)NCCCC[C@H](NC(=O)[C@H](C)NC(=O)[C@H](C)NC(=O)[C@H](CCC(N)=O)NC(=O)CNC(=O)[C@H](CCC(=O)O)NC(=O)[C@H](CC(C)C)NC(=O)[C@H](Cc1ccc(O)cc1)NC(=O)[C@H](CO)NC(=O)[C@H](CO)NC(=O)[C@@H](NC(=O)[C@H](CC(=O)O)NC(=O)[C@H](CO)NC(=O)[C@@H](NC(=O)[C@H](Cc1ccccc1)NC(=O)[C@@H](NC(=O)CNC(=O)[C@H](CCC(=O)O)NC(=O)[C@H](C)NC(=O)[C@@H](N)Cc1cnc[nH]1)[C@@H](C)O)[C@@H](C)O)C(C)C)C(=O)N[C@@H](CCC(=O)O)C(=O)N[C@@H](Cc1ccccc1)C(=O)N[C@H](C(=O)N[C@@H](C)C(=O)N[C@@H](Cc1c[nH]c2ccccc12)C(=O)N[C@@H](CC(C)C)C(=O)N[C@H](C(=O)N[C@@H](CCCNC(=N)N)C(=O)NCC(=O)N[C@@H](CCCNC(=N)N)C(=O)NCC(=O)O)C(C)C)[C@@H](C)CC)C(=O)O [LIRAGLUTIDE] | Active | 411 | 13.1
2 | 0.0202 | CC[C@H](C)[C@H](NC(=O)[C@H](Cc1ccc(O)cc1)NC(=O)[C@H](CC(C)C)NC(=O)[C@H](CCCNC(=N)N)NC(=O)[C@@H](NC(=O)[C@H](C)NC(=O)[C@H](CCC(=O)O)NC(=O)[C@H](CCC(=O)O)NC(=O)[C@H](CCC(=O)O)NC(=O)[C@H](CCSC)NC(=O)[C@H](CCC(N)=O)NC(=O)[C@H](CCCCN)NC(=O)[C@H](CO)NC(=O)[C@H](CC(C)C)NC(=O)[C@H](CC(=O)O)NC(=O)[C@H](CO)NC(=O)[C@@H](NC(=O)[C@H](Cc1ccccc1)NC(=O)[C@@H](NC(=O)CNC(=O)[C@H](CCC(=O)O)NC(=O)CNC(=O)[C@@H](N)Cc1cnc[nH]1)[C@@H](C)O)[C@@H](C)O)C(C)C)C(=O)N[C@@H](CCC(N)=O)C(=O)N[C@@H](Cc1c[nH]c2ccccc12)C(=O)N[C@@H](CC(C)C)C(=O)N[C@@H](CCCCN)C(=O)N[C@@H](CCC(=O)O)C(=O)NCC(=O)NCC(=O)N1CCC[C@H]1C(=O)N[C@@H](CO)C(=O)N[C@@H](CO)C(=O)NCC(=O)N[C@@H](CCCNC(=N)N)C(=O)N1CCC[C@H]1C(=O)N1CCC[C@H]1C(=O)N1CCC[C@H]1C(=O)N[C@@H](CO)C(=O)N[C@@H](CSC1CC(=O)N(CCCCCCCCCCCC(=O)N[C@@H](CCC(=O)O)C(=O)O)C1=O)C(N)=O (stereo not given in full) |  |  | 
3 | 0.0182 | CC[C@H](C)[C@H](NC(=O)[C@H](Cc1ccc(O)cc1)NC(=O)[C@H](CC(C)C)NC(=O)[C@H](CCCNC(=N)N)NC(=O)[C@@H](NC(=O)[C@H](C)NC(=O)[C@H](CCC(=O)O)NC(=O)[C@H](CCC(=O)O)NC(=O)[C@H](CCC(=O)O)NC(=O)[C@H](CCSC)NC(=O)[C@H](CCC(N)=O)NC(=O)[C@H](CSC1CC(=O)N(CCCCCCCCCCCC(=O)N[C@@H](CCC(=O)O)C(=O)O)C1=O)NC(=O)[C@H](CO)NC(=O)[C@H](CC(C)C)NC(=O)[C@H](CC(=O)O)NC(=O)[C@H](CO)NC(=O)[C@@H](NC(=O)[C@H](Cc1ccccc1)NC(=O)[C@@H](NC(=O)CNC(=O)[C@H](CCC(=O)O)NC(=O)CNC(=O)[C@@H](N)Cc1cnc[nH]1)[C@@H](C)O)[C@@H](C)O)C(C)C)C(=O)N[C@@H](CCC(N)=O)C(=O)N[C@@H](Cc1c[nH]c2ccccc12)C(=O)N[C@@H](CC(C)C)C(=O)N[C@@H](CCCCN)C(=O)N[C@@H](CCC(=O)O)C(=O)NCC(=O)NCC(=O)N1CCC[C@H]1C(=O)N[C@@H](CO)C(=O)N[C@@H](CO)C(=O)NCC(=O)N[C@@H](CCCNC(=N)N)C(=O)N1CCC[C@H]1C(=O)N1CCC[C@H]1C(=O)N1CCC[C@H]1C(=O)N[C@@H](CO)C(N)=O (stereo not given in full) |  |  | 
